These results are taken from article PMC8879200, “Design, Synthesis, and Biological Evaluation of 4,4’-Difluorobenzhydrol Carbamates as Selective M1 Antagonists” (Pharmaceuticals, 2022).

Like-named read-outs stand apart in the source and are kept apart here.

For one series, the target named is T1, hM1 (Homo sapiens, UniProt P11229).
T1 construct: host or cells: CHO-K1, stably transfected
T1 sequence (P11229 1-460): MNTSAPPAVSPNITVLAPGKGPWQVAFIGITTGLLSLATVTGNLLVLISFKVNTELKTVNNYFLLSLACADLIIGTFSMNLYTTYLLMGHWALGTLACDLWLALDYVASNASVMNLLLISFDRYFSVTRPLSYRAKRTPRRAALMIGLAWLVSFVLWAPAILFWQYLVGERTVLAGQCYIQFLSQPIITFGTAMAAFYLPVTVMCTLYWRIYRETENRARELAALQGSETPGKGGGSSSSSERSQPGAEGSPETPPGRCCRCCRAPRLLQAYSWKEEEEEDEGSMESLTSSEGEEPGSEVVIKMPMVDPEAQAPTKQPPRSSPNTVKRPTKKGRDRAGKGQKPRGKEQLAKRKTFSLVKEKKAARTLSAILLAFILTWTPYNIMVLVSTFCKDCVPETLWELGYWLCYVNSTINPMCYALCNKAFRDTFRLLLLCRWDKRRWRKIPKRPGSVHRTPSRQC
The series can be described thus: Competitive [3H]NMS radioligand binding, CHO-hM1 cell membranes. The following applies: inhibition of [3H]NMS binding, CHO-hM1 membranes; read-out: Affinity: Ki ± SD, hM1. The method, then: (§1) We first assessed the carbamates’ affinities for human muscarinic acetylcholine receptors subtypes hM1–5 by means of a competitive radioligand binding assay displacing [N-methyl-^3H]scopolamine methyl chloride ([^3H]NMS) in cell membranes expressing the individual receptors.
(§2) Cell membranes bearing hM1-hM5 receptors were prepared as described previously. Briefly, stably transfected CHO-K1 cells were grown to at least 80% confluency in T175 flasks, washed with ice-cold DPBS, and scraped into a mixture of ice-cold of 2 mL 10 mM Tris-HCl, 1 mM EDTA-buffer, pH 7.4 and 200 µL protease inhibitor. A cell homogenate was prepared by passing the cell suspension through a G29 needle. The cell homogenates corresponding to two T175 flasks were combined and subsequently centrifuged (10 min, 1000 × g, 4 °C). Ultracentrifugation of the supernatant (1 h, 100,000 × g, 4 °C) yielded a membrane pellet, which was suspended in 250 µL 50 mM Tris-HCl buffer, pH 7.4 and stored at −80 °C.
(§3) Maximum binding was measured by using 5 µL DMSO, and nonspecific binding was measured by using 5 µL of 1 µM scopolamine in DMSO. […] The membrane-bound radioactivity was recovered by filtration through Whatman™ GF/B glass fibre filters pre-soaked in aqueous 0.1% PEI using an M-36 tygon tubed cell harvester (Brandel®, Gaithersburg, MD, USA). Membranes were washed 3 times with ice-cold washing buffer (50 mM Tris, pH 7.4) before being dried, transferred to 2 mL scintillation cocktail (UltimaGold™, high flashpoint LSC cocktail, PerkinElmer, Waltham, MA, USA) and counted in a β -counter (Hidex TDCR Liquid Scintillation Counter in CPM mode). IC50 values were calculated by a variable slope logistic regression using at least five distinct concentrations of test compounds, pipetted in triplicates.

The target in a further series is T2, hM2 (Homo sapiens, UniProt P08172).
T2 construct: host or cells: CHO-K1, stably transfected
T2 sequence (P08172 1-466): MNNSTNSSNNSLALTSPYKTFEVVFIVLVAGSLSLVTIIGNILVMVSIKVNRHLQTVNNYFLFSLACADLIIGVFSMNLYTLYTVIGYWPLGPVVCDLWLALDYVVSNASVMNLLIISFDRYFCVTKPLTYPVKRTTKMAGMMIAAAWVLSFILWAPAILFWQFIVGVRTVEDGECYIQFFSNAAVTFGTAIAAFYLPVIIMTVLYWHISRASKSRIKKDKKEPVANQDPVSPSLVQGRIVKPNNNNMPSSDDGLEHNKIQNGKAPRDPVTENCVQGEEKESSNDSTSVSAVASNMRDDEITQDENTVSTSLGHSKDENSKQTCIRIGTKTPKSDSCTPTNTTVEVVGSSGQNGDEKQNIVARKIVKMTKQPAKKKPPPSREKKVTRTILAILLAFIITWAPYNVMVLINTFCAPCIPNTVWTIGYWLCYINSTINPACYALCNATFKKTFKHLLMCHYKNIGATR
The series is described as follows: Competitive [3H]NMS radioligand binding, CHO-hM2 cell membranes. The following applies: for Ki: read-out: Affinity: Ki ± SD, hM2. The procedure: as §1, §2, §3

A further series concerns the target T3, hM3 (Homo sapiens, UniProt P20309).
T3 construct: host or cells: CHO-K1, stably transfected
The series is described as follows: Competitive [3H]NMS radioligand binding, CHO-hM3 cell membranes. The following applies: for Ki: read-out: Affinity: Ki ± SD, hM3. The procedure:
as §1, §2, §3

For the next series, the target named is T4, hM4 (Homo sapiens, UniProt P08173).
T4 construct: host or cells: CHO-K1, stably transfected
T4 sequence (P08173 1-479): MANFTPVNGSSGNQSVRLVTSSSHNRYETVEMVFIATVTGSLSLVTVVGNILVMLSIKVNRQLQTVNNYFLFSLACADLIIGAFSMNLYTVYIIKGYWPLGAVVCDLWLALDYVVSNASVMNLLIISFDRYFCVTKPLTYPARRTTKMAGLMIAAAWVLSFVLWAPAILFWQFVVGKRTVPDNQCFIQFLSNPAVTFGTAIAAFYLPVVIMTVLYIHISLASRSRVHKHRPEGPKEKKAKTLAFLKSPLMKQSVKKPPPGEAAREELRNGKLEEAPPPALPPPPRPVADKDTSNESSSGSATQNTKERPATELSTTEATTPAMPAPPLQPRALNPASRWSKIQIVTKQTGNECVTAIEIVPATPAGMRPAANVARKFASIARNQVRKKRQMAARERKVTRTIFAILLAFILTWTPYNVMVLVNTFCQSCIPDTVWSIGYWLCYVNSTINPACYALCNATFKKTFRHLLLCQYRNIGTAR
The series can be described thus: Competitive [3H]NMS radioligand binding, CHO-hM4 cell membranes. The following applies: for Ki: inhibition of [3H]NMS binding, CHO-hM4 membranes, read-out: Affinity: Ki ± SD, hM4. The method, then: as §1, §2, §3

The next series addresses T5, hM5 (Homo sapiens, UniProt P08912).
T5 construct: host or cells: CHO-K1, stably transfected
T5 sequence (P08912 1-532): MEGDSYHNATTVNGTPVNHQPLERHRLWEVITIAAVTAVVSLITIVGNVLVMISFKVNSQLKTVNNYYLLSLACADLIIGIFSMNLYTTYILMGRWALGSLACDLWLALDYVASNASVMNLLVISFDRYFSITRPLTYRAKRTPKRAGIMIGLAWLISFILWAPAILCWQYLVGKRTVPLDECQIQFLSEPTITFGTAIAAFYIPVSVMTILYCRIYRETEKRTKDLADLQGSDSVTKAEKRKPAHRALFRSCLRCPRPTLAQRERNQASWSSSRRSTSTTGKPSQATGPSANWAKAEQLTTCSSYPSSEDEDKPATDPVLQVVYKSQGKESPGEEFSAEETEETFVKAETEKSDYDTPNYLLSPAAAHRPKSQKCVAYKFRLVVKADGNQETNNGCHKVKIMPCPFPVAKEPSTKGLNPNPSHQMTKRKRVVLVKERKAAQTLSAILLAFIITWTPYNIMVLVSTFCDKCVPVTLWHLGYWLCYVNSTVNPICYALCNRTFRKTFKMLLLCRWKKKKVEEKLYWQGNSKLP
The series can be described thus: Competitive [3H]NMS radioligand binding, CHO-hM5 cell membranes. The conditions noted are these: for Ki: inhibition of [3H]NMS binding, CHO-hM5 membranes, read-out: Affinity: Ki ± SD, hM5. The method, then: as §1, §2, §3

Series [1] can be described thus: High throughput HPLC-logD (lipophilicity). The conditions noted are these: pH 7.4.
Procedure: (§4) Briefly, a mixture of toluene (≥98%, Sigma-Aldrich, St. Louis, MO, USA) and triphenylene (≥99.9%, Carl Roth, Karlsruhe, Germany) was used as internal standard. Each sample was dissolved in the internal standard mixture. Using gradient elution, the injection volume was set to 7 µL, the flow rate was 1.5 mL/min, and the mobile phase consisted of a mixture of methanol and 0.01 M sodium phosphate buffer pH 7.4. The HPLC-logD values were derived from the measured retention times following the previously published equation [27, 30].
The nature of series [2]: Stability in fully supplemented RPMI1640 cell culture medium. Type of series: in vitro ADME. The conditions noted are these: fully supplemented RPMI1640, ambient temperature, after 24 h. The procedure: Since the decomposition in cell culture medium of compounds designated for biological testing could impair potential assay readouts, the stabilities of one tertiary carbamate (3) and one secondary carbamate (7) were investigated as representatives for the compound set 1–12. Gratifyingly, the rate of decomposition in fully supplemented RPMI1640 cell culture medium at ambient temperature has been fairly slow, with > 95% of both compounds remaining intact after 24 h (Supplementary Materials, Figure S3). Such stability is adequate with the requirements for carbon-11 labelled PET tracers of around 2–3 half-lives.
The stabilities of 3 and 7 were measured using the HPLC gradient method as described for the purity determination. 4 µL of a test compound’s stock solution in DMSO was diluted with fully supplemented RPMI1640 cell culture medium (10% FBS, 1% L-glutamine, without antibiotics). The stability was measured at ambient temperature and the column oven was set to 20 °C. The samples were measured at 0, 30, 60, 120 min and 24 h.

A short description of the next series: physchem. The conditions noted are these: pH 7.4.

T3 sequence (P20309 whole entry): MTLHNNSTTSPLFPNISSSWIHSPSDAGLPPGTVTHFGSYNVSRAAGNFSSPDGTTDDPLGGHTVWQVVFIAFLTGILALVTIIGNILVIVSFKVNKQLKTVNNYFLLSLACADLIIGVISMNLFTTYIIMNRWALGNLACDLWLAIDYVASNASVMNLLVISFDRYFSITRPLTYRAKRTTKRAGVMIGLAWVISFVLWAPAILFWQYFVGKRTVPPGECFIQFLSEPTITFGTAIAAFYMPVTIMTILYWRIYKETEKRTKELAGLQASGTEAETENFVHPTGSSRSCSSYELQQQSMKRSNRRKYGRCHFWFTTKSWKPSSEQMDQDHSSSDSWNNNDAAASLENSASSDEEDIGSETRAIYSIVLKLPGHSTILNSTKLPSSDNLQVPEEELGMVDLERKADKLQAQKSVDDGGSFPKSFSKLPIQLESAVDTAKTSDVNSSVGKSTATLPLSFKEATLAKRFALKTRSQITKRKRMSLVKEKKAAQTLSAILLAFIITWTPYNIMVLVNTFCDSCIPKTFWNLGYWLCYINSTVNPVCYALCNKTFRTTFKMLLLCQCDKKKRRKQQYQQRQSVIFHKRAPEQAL
Procedure for physchem: as §4

By Ki is commonly meant the dissociation constant of the complex between target and ligand, obtained from inhibition or displacement. By melting point is commonly meant the temperature, or range, at which the solid turns liquid. The chromatographic logD is a lipophilicity value derived from retention on a column. Low readings indicate a more hydrophilic compound, high ones a more lipophilic compound. Turning to `CN1CCC(NC(=O)OC(c2ccc(F)cc2)c2ccc(F)cc2)C1` (stereo not drawn) [Compound 9, Bis(4-fluorophenyl)methyl (1-methylpyrrolidin-3-yl)carbamate], the melting point lay in the range of 84 to 86 °C. Further, the Ki on hM1 was 67.8 ± 5.4 nM. The “x-Fold selectivity for hM1 vs. hM2” value at hM2 (ratio of Ki values hM2/hM1) came to 10.6 fold. Further, on hM2, the Ki turned out to be 722 ± 101 nM. Further, the “x-Fold selectivity for hM1 vs. hM3” value at hM3 (ratio of Ki values hM3/hM1) is on record as 2.7 fold. Further, at hM3, the Ki worked out at 181 ± 68.1 nM. The Ki on hM4 worked out at 144 ± 37.3 nM. Also, at hM4 (ratio of Ki values hM4/hM1), the “x-Fold selectivity for hM1 vs. hM4” value turned out to be 2.1 fold. Moreover, the Ki on hM5 amounted to 64.5 ± 22.8 nM. Moreover, the “x-Fold selectivity for hM1 vs. hM5” value on hM5 (ratio of Ki values hM5/hM1) is 1.0 fold. In addition, the chromatographic logD in series [1] amounted to 2.8 ± 0.1.

Take `CN1CCCC(NC(=O)OC(c2ccc(F)cc2)c2ccc(F)cc2)C1` (stereo not drawn) [Compound 7, Bis(4-fluorophenyl)methyl (1-methylpiperidin-3-yl)carbamate]: the “Compound remaining intact in cell culture medium” value in [2] is recorded as over 95%. Moreover, the Ki on hM1 was 1.22 ± 0.06 nM; on hM2, 32.8 ± 11.4 nM; on hM3 it was 16.1 ± 4.5 nM; on hM4, 6.2 ± 2.1 nM; at hM5 it was 3.7 ± 1.3 nM. The chromatographic logD in [1] stood at 2.2 ± 0.2.

Take `CN1C2CCCC1CC(NC(=O)OC(c1ccc(F)cc1)c1ccc(F)cc1)C2` [Compound 8, Bis(4-fluorophenyl)methyl ((1R,3s,5S)-9-methyl-9-azabicyclo[3.3.1]nonan-3-yl)carbamate]: the Ki at hM1 is 475 ± 88.5 nM; at hM2 (inhibition of [3H]NMS binding, CHO-hM2 membranes, >1000 values from two independent experiments), 624 ± 104 nM; at hM3 (inhibition of [3H]NMS binding, CHO-hM3 membranes, >1000 values from two independent experiments), over 1000 nM; on hM4 it was 563 ± 73.4 nM; on hM5 it was 521 ± 173 nM. In addition, in “physchem”, the chromatographic logD amounted to 3.21 ± 0.03.
